Laboratory results taken from patent publication US8470607B2, “Inhibition of angiogenesis” (Morphotek, Inc., priority 2008, dated 2013).

System: VEGF-stimulated angiogenesis
Assay: CAM assay of VEGF-stimulated angiogenesis: intravenous TM-601, comparison and combination with Avastin and Lucentis
Type: in vivo, chick
Conditions: for relative potency of inhibition of VEGF-stimulated angiogenesis, molar basis: TM-601, Avastin and Lucentis compared on a molar basis
Experimental: The CAM assay was performed using two different methods, depending on the contract laboratory where it was performed. At one contract laboratory, fertilized chick eggs were incubated at 37° C. with 55% humidity. Ten days after fertilization, a small hole was punctured with a hypodermic needle in the area of the shell concealing the air sac. A second hole was punctured in the shell on the broadside of the egg directly over an avascular portion of the embryonic membrane. A false air sac was created beneath the second hold by the application of negative pressure to the first hole, which caused the membrane to separate from the shell. A window approximately 1.0 cm^2 in area was cut in the shell over the dropped CAM with the use of a small grinding wheel, allowing direct access to the underlying CAM. Filter disks were soaked in 3 mg/mL rtisone acetate and subsequently air dried under sterile conditions. […] Sterile filter disks with VEGF at 2 μg/mL were placed on the growing CAMs. […] CAMs were harvested on the 3rd day of stimulation. The CAM tissue directly beneath the filter disk was removed from the embryos and tissues were washed three times with PBS. Blood vessel branch points in the 5 m filter disk area were counted at 30× magnification as a quantitative indicator of vascular sprouting in response to the pro-angiogenic compounds. Each egg was analyzed by two different operators and the average reading was reported. The following equation was used to calculate the mean percent angiogenesis inhibition with VEGF-stimulation:
At the second contract laboratory, the CAM assay was performed as follows. Fertilized chicken eggs were incubated at 37.5° C. in a humidified egg incubator with forced air circulation. […] On embryonic day 7, the CAM membranes were examined and quantitatively analyzed for new blood vessel formation after injection of dyed non-fat dry milk solution. The treatment effects on angiogenesis were evaluated by determining vascular density indexed (VDI) on CAMs only with viable chicken embryos. […]

Substance	relative potency of inhibition of VEGF-stimulated angiogenesis, molar basis	relative potency of inhibition of VEGF-stimulated angiogenesis, by weight of inhibitor (TM-601, Avastin and Lucentis compared on a mass basis)
bevacizumab [Avastin]	more effective than TM-601	–
ranabizumab [Lucentis]	more effective than TM-601	most potent
